Earlier results as cited in US20100137442A2, “Sustained Release Particulate Oral Dosage Forms of (R)-Baclofen and Methods of Treatment” (XenoPort, Inc., priority 2008, published 2010).
Each block holds one compound with its values, some of them ahead of it.

Legend:
[1] = animal models
[2] = oral baclofen
[3] = oral; 2 mg t.i.d equivalent to racemic baclofen 10 mg t.i.d.
[4] = dosed either orally or directly into the colon of a mammal

absorption following administration into the colon [1]: poorly absorbed
elimination half-life [2]: 3 to 4 h
SMILES: NCC(CC(=O)O)c1ccc(Cl)cc1 (racemic) [Baclofen, (±)-4-Amino-3-(4-chlorophenyl)butanoic acid]

SMILES: NC[C@H](CC(=O)O)c1ccc(Cl)cc1 [(R)-baclofen, R-(−)-baclofen]
potency relative to orally administered racemic baclofen [3]: about 5 fold

bioavailability as (R)-baclofen [4]: high bioavailability
SMILES: CC(C)C(=O)O[C@@H](OC(=O)NC[C@H](CC(=O)O)c1ccc(Cl)cc1)C(C)C [Compound (4), (3R)-4-{[(1S)-2-methyl-1-(2-methylpropanoyloxy)propoxy]carbonylamino}-3-(4-chlorophenyl)butanoic acid]
